# Laboratory results from patent publication US8202885B2, “Bridged six-membered ring compounds” (Actelion Pharmaceuticals Ltd., priority 2007, dated 2012).
# Where “and” joins values, the source holds several entries; their conditions need not be identical. Identical values can stand only once.
# System: human Cav3.1 Cav3.2 or Cav3.3 channel
# Test: In vitro assay T channel (FLIPR calcium fluorescence)
# Format: cell-based
# Details: HEK293 cells expressing human Cav3.1, Cav3.2 or Cav3.3; 10 mM Ca2+-induced fluo-4 fluorescence; determined up to 10 μM; read-out: T channel antagonistic activity IC50
# Method: The T channel antagonistic activity (IC50 values) of the compounds of formula (I) is determined in accordance with the following experimental method and data are shown in Table 1.
# Human embryonic kidney (HEK293) cells expressing the human Cav3.1 Cav3.2 or Cav3.3 channel, respectively, are grown in culture medium (DMEM containing 10% heat-inactivated fetal calf serum (FCS), 100 U/ml penicillin, 100 μg/ml streptomycin and 1 mg/ml G418). The cells are seeded at 20.000 cells/well into 384-well black clear bottom sterile plates (poly-L-lysine-coated, Becton Dickinson). The seeded plates are incubated overnight at 37° C. in 5% CO2. The Ca^2+ solution is prepared as 100 mM stock solution in 100 mM tetraethylammoniumchloride (TEA-chloride), 50 mM HEPES, 2.5 mM CaCl2, 5 mM KCl, 1 mM MgCl2, adjusted to pH 7.2 with TEA-hydroxide, for use in the assay at a final concentration of 10 mM. Antagonists are prepared as 10 mM stock solutions in DMSO, then diluted in 384 w plates first in DMSO, then in 100 mM TEA-chloride, 50 mM HEPES, 2.5 mM CaCl2, 5 mM KCl, 1 mM MgCl2, adjusted to pH 7.2 with TEA-hydroxide, to obtain 9× stocks. On the day of the assay, 25 μl of staining buffer (HBSS containing 20 mM HEPES, 0.375 g/l NaHCO3 and 3 μM of the fluorescent calcium indicator fluo-4 AM (1 mM stock solution in DMSO, containing 10% pluronic) is added to each well of the seeded plate. The 384-well cell-plates are incubated for 60 min at 37° C. in 5% CO2 followed by washing with 2×50 μl per well using HBSS containing 0.1% BSA, 20 mM HEPES, 0.375 g/l NaHCO3, leaving 50 […] of this buffer for equilibration at room temperature (30-60 min). Within the Fluorescent Imaging Plate Reader (FLIPR, Molecular Devices), antagonists are added to the plate in a volume of 6.25 μl/well, incubated for 3 min, and finally 6.25 […] of Ca^2+ solution is added. Fluorescence is measured for each well at 2 second intervals for 8 minutes, and the area under the curve of each fluorescence peak is compared to the area of the fluorescence peak induced by 10 mM Ca^2+ with vehicle in place of antagonist. For each antagonist, the IC50 value (the concentration (in nM) of compound needed to inhibit 50% of the Ca^2+-induced fluorescence response) up to 10 μM is determined.
row,IC50,Molecule
1,1750 nM and 2000 nM,"CC(C)C(=O)OC1(CCN(C)CCCc2nc3ccccc3[nH]2)CC2CCC1CC2c1ccccc1 (racemic) [Example 73A, rac-Isobutyric acid (1R*,2R*,4R*,5S*)-2-(2-{[3-(1H-benzoimidazol-2-yl)-propyl]-methyl-amino}-ethyl)-5-phenyl-bicyclo[2.2.2]oct-2-yl ester and rac-isobutyric acid (1R*,2R*,4R*,5R*)-2-(2-{[3-(1H-benzoimidazol-2-yl)-propyl]-methyl-amino}-ethyl)-5-phenyl-bicyclo[2.2.2]oct-2-yl ester]"
2,951 nM,"COc1cccc2[nH]c(CCCN(C)CC[C@]3(OC(=O)C(C)(C)OC)C[C@H]4CC[C@@H]3C=C4c3ccccc3)nc12 (relative stereo) [Example 26F, rac-2-Methoxy-2-methyl-propionic acid (1R*,2R*,4R*)-2-(2-{[3-(4-methoxy-1H-benzoimidazol-2-yl)-propyl]-methyl-amino}-ethyl)-5-phenyl-bicyclo[2.2.2]oct-5-en-2-yl ester]"
3,3330 nM,"CCOc1ccc(CCCN(C)CC[C@]2(O)C[C@H]3CC[C@@H]2C=C3c2ccccc2)cc1OCC (relative stereo) [Example 40, rac-(1R*,2R*,4R*)-2-(2-{[3-(3,4-Diethoxy-phenyl)-propyl]-methyl-amino}-ethyl)-5-phenyl-bicyclo[2.2.2]oct-5-en-2-ol]"
4,2600 nM,"CCOc1cccc2nc(CCCN(C)CC[C@]3(OC(=O)C(C)C)C[C@H]4CC[C@@H]3C=C4c3ccccc3)[nH]c12 (relative stereo) [Example 31A, rac-Isobutyric acid (1R*,2R*,4R*)-2-(2-{[3-(7-ethoxy-1H-benzoimidazol-2-yl)-propyl]-methyl-amino}-ethyl)-5-phenyl-bicyclo[2.2.2]oct-5-en-2-yl ester]"
5,4210 nM,"CCCC1=C(C)[C@H]2CC[C@@H]1C[C@]2(CCN(C)CCCN(C)C(=O)C(C)(COC)COC)OC(=O)C(C)C (relative stereo) [Example 52A, rac-Isobutyric acid (1R*,2R*,4R*)-2-[2-({3-[(3-methoxy-2-methoxymethyl-2-methyl-propionyl)-methyl-amino]-propyl}-methyl-amino)-ethyl]-6-methyl-5-propyl-bicyclo[2.2.2]oct-5-en-2-yl ester]"
6,6930 nM,"COc1ccc(C2=C[C@H]3CC[C@@H]2C[C@]3(CCN(C)CCCc2nc3ccccc3[nH]2)OC(=O)C(C)C)cc1 (relative stereo) [Example 22A, rac-Isobutyric acid (1R*,2R*,4R*)-2-(2-{[3-(1H-benzoimidazol-2-yl)-propyl]-methyl-amino}-ethyl)-5-(4-methoxy-phenyl)-bicyclo[2.2.2]oct-5-en-2-yl ester]"
7,1250 nM,"COc1ccc(C)c2nc(CCCN(C)CC[C@]3(OC(=O)C(C)C)C[C@H]4CC[C@@H]3C=C4c3ccccc3)[nH]c12 (relative stereo) [Example 30A, rac-Isobutyric acid (1R*,2R*,4R*)-2-(2-{[3-(7-methoxy-4-methyl-1H-benzoimidazol-2-yl)-propyl]-methyl-amino}-ethyl)-5-phenyl-bicyclo[2.2.2]oct-5-en-2-yl ester]"
8,2520 nM,"CC(=O)Nc1cccc2[nH]c(CCCN(C)CC[C@]3(OC(=O)C(C)C)C[C@H]4CC[C@@H]3C=C4c3ccccc3)nc12 (relative stereo) [Example 56A, rac-Isobutyric acid (1R*,2R*,4R*)-2-(2-{[3-(4-acetylamino-1H-benzoimidazol-2-yl)-propyl]-methyl-amino}-ethyl)-5-phenyl-bicyclo[2.2.2]oct-5-en-2-yl ester]"
9,> 10000 nM,"CC(C)C(=O)O[C@@]1(CCN(C)CCCc2cncc3ccccc23)C[C@H]2CC[C@@H]1C=C2c1ccccc1 (relative stereo) [Example 48A, rac-Isobutyric acid (1R*,2R*,4R*)-2-{2-[(3-isoquinolin-4-yl-propyl)-methyl-amino]-ethyl}-5-phenyl-bicyclo[2.2.2]oct-5-en-2-yl ester]"
10,793 nM,"COc1ccc(OC)c2[nH]c(CCCN(C)CCC3(OC(=O)C(C)C)CC4CCC3C=C4c3ccccc3)nc12 [Example 70A, Isobutyric acid (1R,2R,4R)-2-(2-{[3-(4,7-dimethoxy-1H-benzoimidazol-2-yl)-propyl]-methyl-amino}-ethyl)-5-phenyl-bicyclo[2.2.2]oct-5-en-2-yl ester or isobutyric acid (1S,2S,4S)-2-(2-{[3-(4,7-dimethoxy-1H-benzoimidazol-2-yl)-propyl]-methyl-amino}-ethyl)-5-phenyl-bicyclo[2.2.2]oct-5-en-2-yl ester]"
11,1110 nM,"COc1cccc2[nH]c(CCCN(C)CC[C@]3(OC(=O)NC(C)C)C[C@H]4CC[C@@H]3C=C4c3ccccc3)nc12 (relative stereo) [Example 26E, rac-Isopropyl-carbamic acid (1R*,2R*,4R*)-2-(2-{[3-(4-methoxy-1H-benzoimidazol-2-yl)-propyl]-methyl-amino}-ethyl)-5-phenyl-bicyclo[2.2.2]oct-5-en-2-yl ester]"
12,1340 nM,"rac-(1R*,3R*,4R*)-1,2,3,4,9,10-Hexahydro-3-hydroxy-3-{N-methyl-N-(3-benzimidazol-2-ylpropyl)aminoethyl}-1,4-ethanophenanthrene [Example 18]"
13,> 10000 nM,"CO[C@]1(c2ccccc2)C[C@H]2CC[C@@H]1C[C@@]2(O)CCN(C)CCCc1nc2ccccc2[nH]1 (relative stereo) [Example 76, rac-(1R*,2R*,4R*,5R*)-2-(2-{[3-(1H-Benzoimidazol-2-yl)-propyl]-methyl-amino}-ethyl)-5-methoxy-5-phenyl-bicyclo[2.2.2]octan-2-ol]"
14,4340 nM,"CC(C)C(=O)Oc1cccc2nc(CCCN(C)CC[C@]3(OC(=O)C(C)C)C[C@H]4CC[C@@H]3C=C4c3ccccc3)[nH]c12 (relative stereo) [Example 34A, rac-Isobutyric acid (1R*,2R*,4R*)-2-(2-{[3-(7-isobutyryloxy-1H-benzoimidazol-2-yl)-propyl]-methyl-amino}-ethyl)-5-phenyl-bicyclo[2.2.2]oct-5-en-2-yl ester]"
15,> 10000 nM,"CO[C@@]1(c2ccccc2)C[C@H]2CC[C@@H]1C[C@@]2(O)CCN(C)CCCc1nc2ccccc2[nH]1 (relative stereo) [Example 78, rac-(1R*,2R*,4R*,5S*)-2-(2-{[3-(1H-Benzoimidazol-2-yl)-propyl]-methyl-amino}-ethyl)-5-methoxy-5-phenyl-bicyclo[2.2.2]octan-2-ol]"
16,2920 nM,"CN(CCCc1nc2ccccc2[nH]1)CC[C@]1(O)C[C@H]2CC[C@@H]1C[C@@]21OCc2ccccc21 (relative stereo) [Example 79, rac-(1R*,2R*,4R*,5R*)-5-(2-{[3-(1H-Benzoimidazol-2-yl)-propyl]-methyl-amino}-ethyl)-3′H-spiro(bicyclo[2.2.2]octane-2,1′-isobenzofuran)-5-ol]"
17,4430 nM,"COCC(C)(COC)C(=O)N(C)CCCN(C)CC[C@]1(OC(=O)C(C)C)C[C@H]2CC[C@@H]1C=C2c1ccccc1 (relative stereo) [Example 51A, rac-Isobutyric acid (1R*,2R*,4R*)-2-[2-({3-[(3-methoxy-2-methoxymethyl-2-methyl-propionyl)-methyl-amino]-propyl}-methyl-amino)-ethyl]-5-phenyl-bicyclo[2.2.2]oct-5-en-2-yl ester]"
